Data as given in patent US10011571B2, “Preparation method for aromatic heterocyclic compound used as selective JAK3 and/or JAK1 kinase inhibitor and application of aromatic heterocyclic compound” (SHENZHEN CHIPSCREEN BIOSCIENCES, LTD., priority 2014, dated 2018).

How the values were obtained:
[1] = system: IL-2/JAK1 & 3/STAT5 (CTLL-2); test: Intracellular activity assay, IL-2 induced STAT5 phosphorylation in CTLL-2; type: cell-based; details: Mus musculus; inhibition of STAT5 phosphorylation, CTLL-2, IL-2 10 ng/mL
Text: (§1) In this experiment, western blot (WB) and flow cytometry are used to evaluate the intracellular activities of the test compounds by comparing the relative levels of the signals of phosphorylated and non-phosphorylated STATs in 5 cell models, including U937, THP-1, CTLL-2, UT-7/EPO and activated human periphery blood cell (hPBC). The primary antibody and secondary antibody used in WB hybridization in this experiment are purchased from Cell Signaling Company (http://www.cellsignal.com). The fluorescence-labeled antibodies used in flow cytometry are purchased from eBiosciences Company (http://www.ebioscience.com).
CTLL-2 is a T-cell line, and its proliferation and growth depends on cytokine IL-2. […] The intracellular inhibitory activity of the compounds on JAK1/3 can be evaluated by detecting the change of the phosphorylation level of STAT5. […]
(§2) (2) Cell fixation and fluorescence labeling: the cells are fixed using paraformaldehyde (30 min), and subsequently treated for membrane permeability in chilled methanol (15 min). […]
(3) Detection by flow cytometry: the detection is carried out using Guava® easyCyte flow cytometer according to the instruction. The median fluorescent intensity (MFI) of a sample is detected using an appropriate cell population. […]

[2] = system: IL-4/JAK1 & 3/STAT6 (THP-1); test: Intracellular activity assay, IL-4 induced STAT6 phosphorylation in THP-1; type: cell-based; details: Homo sapiens; inhibition of STAT6 phosphorylation, THP-1, IL-4 10 ng/mL
Text: as §1
THP-1 is a monocytic cell line. […] The intracellular inhibitory activity of the compounds on JAK1/3 can be evaluated by detecting the change of the phosphorylation level of STAT6. […]
(2) Protein extraction and WB detection: after extraction, the protein content is determined. […]
(3) Signal detection: the hybridization signal is detected by X-ray imaging. The grey scale signal obtained by scanning is converted to digital signal, and the signal intensities for both phosphorylated STATs and STATs are each calculated to evaluate the phosphorylation inhibitory activities of the compounds on STATs. […]
as §2

TYK2 = TYK2 (Homo sapiens (Human), UniProt P29597); test: Eurofins IC50Profiler radiometric kinase assay, TYK2; type: biochemical; details: 9 semilog concentrations
TYK2, sequence (P29597 whole entry, species assumed): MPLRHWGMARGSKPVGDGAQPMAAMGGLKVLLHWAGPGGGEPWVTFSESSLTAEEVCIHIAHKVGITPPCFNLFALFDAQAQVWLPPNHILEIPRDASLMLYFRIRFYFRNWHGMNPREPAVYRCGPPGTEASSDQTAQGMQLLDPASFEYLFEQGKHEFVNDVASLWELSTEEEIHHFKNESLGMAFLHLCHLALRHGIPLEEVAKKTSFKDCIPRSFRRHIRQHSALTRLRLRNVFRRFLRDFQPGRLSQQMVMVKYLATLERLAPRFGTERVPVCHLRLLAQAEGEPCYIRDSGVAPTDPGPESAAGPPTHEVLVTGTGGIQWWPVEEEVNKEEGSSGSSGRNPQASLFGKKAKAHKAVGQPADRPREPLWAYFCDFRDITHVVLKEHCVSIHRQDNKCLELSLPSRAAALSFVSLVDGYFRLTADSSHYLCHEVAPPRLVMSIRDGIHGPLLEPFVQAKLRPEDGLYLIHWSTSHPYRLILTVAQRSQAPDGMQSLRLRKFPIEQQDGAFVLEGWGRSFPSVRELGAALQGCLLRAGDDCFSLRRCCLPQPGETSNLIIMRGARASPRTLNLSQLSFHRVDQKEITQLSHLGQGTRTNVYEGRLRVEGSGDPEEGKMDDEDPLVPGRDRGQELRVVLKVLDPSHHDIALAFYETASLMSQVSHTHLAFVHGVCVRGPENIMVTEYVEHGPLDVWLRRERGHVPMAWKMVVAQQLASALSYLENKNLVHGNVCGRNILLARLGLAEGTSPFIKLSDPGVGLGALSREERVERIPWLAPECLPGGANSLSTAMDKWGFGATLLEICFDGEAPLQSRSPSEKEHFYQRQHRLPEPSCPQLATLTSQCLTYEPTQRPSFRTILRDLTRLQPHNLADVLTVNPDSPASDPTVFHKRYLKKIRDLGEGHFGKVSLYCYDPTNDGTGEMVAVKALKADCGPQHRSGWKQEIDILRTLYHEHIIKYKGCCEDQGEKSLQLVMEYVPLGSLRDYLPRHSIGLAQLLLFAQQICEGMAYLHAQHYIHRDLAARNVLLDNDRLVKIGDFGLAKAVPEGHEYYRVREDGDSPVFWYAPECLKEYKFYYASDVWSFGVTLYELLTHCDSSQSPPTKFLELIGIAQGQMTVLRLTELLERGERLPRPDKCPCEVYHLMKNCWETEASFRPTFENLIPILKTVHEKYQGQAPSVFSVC
Text: A proportion of the compounds of the present invention are subjected to kinase profile screening (KinaseProfiler™)) and enzymatic inhibitory activity (IC50Profiler™)) assay by entrusting Eurofins company (http://www.eurofins.com). Besides the kinases in the JAK family, the kinases that have been screened for their activity also include most Group 3F and Group 4 kinases (ITK, BLK, TBK1, VEGFRs, ERBBs, etc.), and blood system related kinases (Zhang J. et al. 2009, Nat. Rev. Cancer., 9: 28-39). The concentration of the test compound for kinase profile screening is 1 μM, and a gradient of 9 semilog concentration gradients are used to determine IC50. Detection is carried out according to standard procedure of Eurofins Company. Briefly, according to the requirements of different kinase reactions, 0.2 μL test compound (50 μM, dissolved in dimethyl sulfoxide (DMSO)) is added to reaction buffer containing specific kinase (the buffer system containing 20 mM MOPS, 1 mM EDTA, 0.01% Brij-35, 5% Glycerol, 0.1% β-mercaptoethanol, 1 mg/mL BSA, or 50 mM TRIS, 0.1 mM EGTA, 0.1 mM Na3VO4, 0.1% β-mercaptoethanol, 1 mg/mL BSA, based on the type of kinase used). […] After drying, radio-activity is detected. […]

Compound: C=CC(=O)N(C)c1cc(Nc2ncc(Cl)c(NCCCNC(=O)c3ccc(C#N)cc3)n2)ccc1F [Example 7, N-(3-(5-chloro-2-(4-fluoro-3-(N-methylacrylamido)phenylamino)pyrimidinyl-4-amino)propyl)-4-cyano-benzamide]
- IC50 [1]: 80 nM
- IC50 [2]: 1690 nM
- IC50 (TYK2): > 10 µM

Compound: C=CC(=O)N(C)c1cc(Nc2ncc(Cl)c(NCCCNC(=O)c3ccc(C(F)(F)F)cc3)n2)ccc1F [Example 22, N-(3-(5-chloro-2-(4-fluoro-3-(N-methylacrylamido)phenylamino)pyrimidinyl-4-amino)propyl)-4-trifluoromethylbenzamide]
- IC50 (TYK2): > 10 µM

Compound: C=CC(=O)N(C)c1cc(Nc2ncc(Cl)c(NCCCNC(=O)c3ccc(F)cc3)n2)ccc1F [Example 23, N-(3-(5-chloro-2-(4-fluoro-3-(N-methylacrylamido)phenylamino)pyrimidinyl-4-amino)propyl)-4-fluorobenzamide]
- IC50 [1]: 130 nM
- IC50 [2]: 1730 nM
